Results on three compounds are retold here after patent publication US20100016355A1, “ALPHA-2B ADRENERGIC RECEPTOR AGONIST AND SEROTONIN-NOREPINEPHRINE REUPTAKE INHIBITOR COMPOSITIONS FOR TREATING CHRONIC PAIN” (priority 2006, published 2010).

The test system of this test is Chung rat model of chronic pain (allodynia). Put plainly: Chung rat model of chronic pain. It is filed as in vivo. The following applies: rats. The procedure: Amitriptyline was administered intraperitoneally to rats at a minimally effective dose; that is, the compound was administered at a dose that, when administered alone, is the minimum dose required to relieve pain (this dose was calculated by finding, first, the dose that produced drug's maximum effect—that is, the dose that fully alleviated pain—and dividing that dose by […]; the result is a dose that is slightly less than 50% of the dose that is required to produce the drug's maximum effect) The rats then immediately received one of two alpha-2B receptor agonists, compound No. 95 and compound no. No. 27, or received no additional compound, at all. Compound No. 95 and Compound No. 27 were administered intraperitoneally at ineffective doses; that is, these compounds were administered at doses that, when administered alone, are not effective in relieving pain. Pain reversal was then assessed using the Chung rat model of chronic pain. The model is described by Kim and Chung, Pain, […], at 355-363 (1992) and in U.S. Pat. No. 7,091,232, both of which are incorporated by reference herein.

Regarding `CN(C)CCC=C1c2ccccc2CCc2ccccc21` [Amitriptyline, reference compound], the “Pain Reversal” value came to 43% (amitriptyline alone, 30 μg/kg intraperitoneally (minimally effective dose)) and 43% (amitriptyline alone, 30 μg/kg intraperitoneally (minimally effective dose), listed as amitriptyline).

With `C1=NC(CC2CCc3ccccc3C2)CN1` (stereo not shown) [Compound No. 27], under “Compound No. 27 10 μg/kg i.p. (ineffective dose alone) given immediately after amitriptyline 30 μg/kg i.p.”, the “Pain Reversal” value came to 81%.

As to `C[C@@H](c1c[nH]c(=S)[nH]1)c1cccc2ncccc12` [Compound No. 95], the “Pain Reversal” value (Compound No. 95 1 μg/kg i.p. (ineffective dose alone) given immediately after amitriptyline 30 μg/kg i.p.) stood at 80%.
